Compound	logP
CC(C)N1CCOC(c2cccc(Cl)c2)C1 (centres undefined)	3.27
CC(C)CNC(=O)NN	-0.84
CN(C)C(=O)Cc1ccco1	0.01
O=C1OC(Cc2ccccc2)c2ccccc21 (centres undefined)	3.12
CS(=O)(=O)c1cccs1	0.38
CS(=O)(=O)c1cccc(NS(=O)(=O)C(F)(F)F)c1	1.85
CC(=O)NC1=C(Nc2ccccc2)C(=O)c2ccccc2C1=O	1.73
CC(C)NC(=O)NN	-1.3
Cc1cc(NC(=O)N(C)C)cc(C)c1Br	2.92
Clc1ccccc1NC1=NCCN1	1.36
O=[N+]([O-])c1nccnc1NCC(O)CO (centres undefined)	-0.49
N#Cc1ccc(OC(=O)CNC(=O)c2ccccc2)cc1	2.11
CCCCN(CCCC)CCS(=O)(=O)c1cc(OC)c(OC)c(OC)c1	3.55
CCOC(=O)c1cnc2cccc(C)n2c1=O	0.96
CCOc1cc(Cc2cnc(N)nc2N)cc(OCC)c1N	1.69
CC(C)C1=Nc2cc(Cl)ccc2S(=O)(=O)N1	2
COc1cc(Cc2cnc(N)nc2N)cc(OCc2ccccc2)c1OCc1ccccc1	4.09
COCC1=Nc2cc(Cl)ccc2S(=O)(=O)N1	1.12
COc1ccccc1C1=NCC(=O)Nc2ccc(Cl)cc21	2.63
CNC(=O)C(NC(C)=O)C(C)C (centres undefined)	-0.35
COc1ccc(N=NN(C)C(C)=O)cc1	2.61
COc1cc(Cc2cnc(N)nc2N)ccc1N	0.49
CC(=O)NCCn1c([N+](=O)[O-])cnc1C	-0.47
C[N+](C)(C)Cc1cccc([N+](=O)[O-])c1.[Br-]	-2.66
COc1ccccc1NC(=O)C(Cl)Cl	2.41
CNC1=NC(=O)C(=Cc2ccc([N+](=O)[O-])o2)S1	1.16

Compound	logP
O=C(O)COc1ccc(N=Nc2ccccc2)cc1	2.99
Cc1cnc(Cc2ccc(O)cc2)s1	2.62
CN(C)CCC=C1c2ccccc2CCc2c(Cl)cccc21	5.55
CC1CN(N=O)C(C)CN1N=O (centres undefined)	0.15
O=C1CN=C(c2ccccc2Cl)c2cc(Cl)ccc2N1	3.15
CCOC(=O)C(=Cc1cccc(C)c1)C(C)=O	2.8
CN(C)c1ccc(C(N)=O)cc1	1.14
O=[N+]([O-])C=Cc1ccc([N+](=O)[O-])cc1	1.89
COc1ccnc(-n2nc(C)cc2OC)n1	1.01
NC(=O)/C=C/c1ccc2c(c1)OCO2	1.4
COC1C(Cl)C(Cl)C(Cl)C(Cl)C1OC (centres undefined)	2.82
O=C1O[C@@H](O)c2ccccc21	0.57
C[N+](C)(C)Cc1cccc(N)c1.[Br-]	-2.5
CNC(=O)ON=Cc1ccc(Cl)cc1	2.27
O=S1(=O)NC(C2CCC2)=Nc2ccc(Cl)cc21	2.24
CC(=O)Nc1c(C)c(C)c(O)c(C)c1C	0.95
NC(=O)c1ccc(Cl)nn1	0
CNP(=O)(OC)Oc1cccc(C(C)(C)C)c1 (centres undefined)	2.65
CCN(CC)c1ccc(CO)cc1	2.29
CCC(C)NC(=O)C=Cc1ccc(Cl)cc1 (centres undefined)	3.37
COc1cc(Cc2cnc(N)nc2N)cc(OC)c1OCc1ccccc1	2.46
O=[N+]([O-])c1nccn1CC(O)COc1ccccc1 (centres undefined)	1.43
NC(=O)Nc1cnc2ccccc2n1	1.3
O=C1CCCN1Cc1ccccc1	1.25
CC(=O)OCC(Cn1ccnc1[N+](=O)[O-])OC(C)=O (centres undefined)	-0.05
Cn1c(=O)nc(-c2ccccc2)c2ccccc21	1.79

Compound	logP
CCCc1nnc(SC)n(N)c1=O	0.93
COc1ccccc1N1C(=O)CCC1=O	-0.02
COc1cc(Cc2cnc(N)nc2N)cc(OC)c1C(N)=O	-0.85
NC(=O)COCc1ccco1	-0.11
CC(=O)N(C)c1c(I)c(C(=O)NCC(O)CO)c(I)c(C(=O)NCC(O)CO)c1I (centres undefined)	-2.06
CCCCCCCCCCOC(=O)N(C)SN(C)C(=O)ON=C(C)SC	6.2
CCOC(=O)C(C#N)=NNc1cc(Cl)c(Cl)cc1Cl	5.21
CC1=Nc2ccc(S(=O)(=O)N(C)C)cc2S(=O)(=O)N1	0.32
COCCN(CCOC)/N=N/c1nc[nH]c1C(N)=O	0.03
CSc1nnc(C2CCCCO2)c(=O)n1N (centres undefined)	0.38
CC(=O)Nc1n[nH]c(NC(C)=O)n1	-1.02
FC(F)(F)CCc1ccccc1	3.31
O=C(O)Cc1ccc(OCc2ccccc2)cc1	2.72
CCN(CC)CCNC(=O)c1cc(F)cc(Cl)c1OC	3.18
O=C(COc1ccccc1)N1CCCCC1	1.81
NS(=O)(=O)NS(=O)(=O)Nc1ccccc1	0.02
COC(=O)C(C#N)=NNc1cc(C#N)ccc1C#N	2.81
CC1=C(C(=O)O)N2C(=O)C(NC(=O)Cc3cccs3)C2SC1 (centres undefined)	0.61
CN1CCN(N=O)CC1	0.2
O=C1CCC(=O)N1c1ccccc1Br	0.65
CCOc1cc(Cc2cnc(N)nc2N)cc(OC)c1C(C)(C)O	2.11
O=C(Nc1ccccc1)NC(CO)(CO)CO	0.43
CC(C)(C)c1cccc(OC2OC(CO)C(O)C(O)C2O)c1 (centres undefined)	1.01
CCOP(=O)(OCC)Oc1ccc(SC)cc1	2.79
CNC(=O)NCCSCc1[nH]cnc1C	-0.06
O=C(NCC(O)c1ccc([N+](=O)[O-])cc1)C(F)(F)F (centres undefined)	1.46

Compound	logP
CC(=O)Nc1cnc2ccccc2c1	1.92
Clc1ccccc1-c1ccc(Cl)c(Cl)c1Cl	6.11
CC(C)(C)C1=Nc2ccc(Cl)cc2S(=O)(=O)N1	2.4
Cn1c(C(C)(C)O)cnc1[N+](=O)[O-]	0.43
NC(=O)CCn1nnc2ccccc21	0.27
NC(=O)N(CCCN(N=O)C(N)=O)N=O	-0.3
CCCCCCCCOn1c(=O)[nH]c(C)c(Br)c1=O	3.39
[O-][n+]1ccc(Cl)c2ccccc21	1.08
CCNC1=NC(=O)C(=Cc2ccc([N+](=O)[O-])o2)S1	1.16
O=NN1CCC(=O)CC1	-0.47
CC(C)=CC1C(C(=O)OCc2cccc([N+](=O)[O-])c2)C1(C)C (centres undefined)	5.2
O=C1CN=C(c2cccc(Cl)c2)c2cc(Br)ccc2N1	3.63
CC1=Nc2ccc(Br)cc2S(=O)(=O)N1	1.37
CCCCCCOC(=O)N(C)SN(C)C(=O)ON=C(C)SC	4.2
CN(C)C(=O)c1cnc2ccccc2c1	0.99
O=S(=O)(Nc1ccccc1)c1cccc2cccnc12	1.75
COC(=O)C(C#N)=NNc1cccc(C(F)(F)F)c1	3.78
CC(C)c1nnc(N)o1	0.2
CNc1nnc(C(C)C)c(=O)n1N	0.3
Clc1cccc(C2NCCS2)c1 (centres undefined)	2.04
O=C(O)CCCCCn1nnc2ccccc21	0.86
O=S(=O)(Nc1cccc(Br)c1)C(F)(F)F	3.82
CC(C)(C)C(=O)C(C#N)=NNc1cccc(Cl)c1	4.62
COc1cc(OC)c(OC)cc1Cc1cnc(N)nc1N	1.17
Nc1cccc2nccnc12	1.29
CNC(=O)ON=C(C)C(C)(C)[N+](=O)[O-]	0.66

Compound	logP
COc1ccc(Cc2cnc(N)nc2N)c(OC)n1	2.01
CN(C=O)c1ccc(S(=O)(=O)N(C)C)cc1	0.4
COc1cc(-n2[nH]c(C)cc2=O)nc(C)n1	0.72
O=S1(=O)NC(CCl)=Nc2cc(Cl)ccc21	1.68
CC1(C)CCCC(C)(C)N1N=O	2.49
CC(=O)Nc1cc(C)c(O)c(C)c1C	0.82
Nc1ccc(OC(=O)CNC(=O)c2ccccc2)cc1	1.01
CCc1n[nH]c(=O)[nH]c1=O	0.22
CN(C)C(=O)Nc1cccc(O)c1	0.51
CCN(CC)c1cc(N)[n+]([O-])c(N)n1	1.16
CCCCCCCC(=O)NN	1
COc1ccc(Cc2cnc(N)nc2N)cc1	1.34
CCC(=O)Nc1n[nH]c(NC(=O)CC)n1	0.07
CC(C)N(N=O)C(=O)Nc1ccccc1	2.5
S=C=NC(c1ccccc1)c1cccc2ccccc12 (centres undefined)	6.44
Cc1[nH]c(=O)n(OCC(C)C)c(=O)c1Br	1.23
S=C=Nc1ccc(Nc2ccccc2)cc1	4.94
CC(C)Nc1ccccc1C(N)=O	2.07
CNC(=O)Oc1ccc(S(C)(=O)=O)cc1	0.34
O=C(O)c1ccccc1Nc1cccc([N+](=O)[O-])c1	4.57
O=C(O)CCCCCCCN1C(=O)C=CC1=O	1.99
CN(C)Cc1cccs1	1.67
COC1C(Cl)C(Cl)C(OC)C(Cl)C1Cl (centres undefined)	3.15
Cc1cc(=O)[nH]n1-c1ccncn1	1.4
CCc1cc(OP(=O)(OC)OC)ccc1[N+](=O)[O-]	2.19
O=C1CN=C(c2ccccc2Cl)c2cc(Br)ccc2N1	3.3

Compound	logP
N#CCNc1ccccc1C(=O)O	1.8
Clc1ccc(Cl)c(-c2cc(Cl)cc(Cl)c2Cl)c1	6.79
O=[N+]([O-])c1nccn1CCOc1ccccc1	1.89
COc1cc(Cc2cnc(N)nc2N)cc(OC)c1N	0.83
ClC1C=CCC(Cl)C1Cl (centres undefined)	2.84
c1ccc(Nc2ccccn2)cc1	2.75
CC(=O)OCCN1CCS/C1=N/c1ncc([N+](=O)[O-])s1	1.88
ClC1=CC(Cl)C(Cl)C(Cl)C1 (centres undefined)	3.72
Cc1cc(C)cc(NC(=O)N(C)C)c1	1.9
O=CN(Cc1ccccc1)c1ccccc1	2.62
COc1cc(Cc2cnc(N)nc2N)cc(OC)c1C(C)(C)O	1.49
COc1cc(OC)cc(OC(=O)CNC(=O)c2ccccc2)c1	2.69
CCOC(=O)C(C#N)=NNc1ccc(Cl)c(Cl)c1	4.66
CCC(C)C1=Nc2ccc(Cl)cc2S(=O)(=O)N1 (centres undefined)	2.47
O=NN1CCCCCCC1	1.48
CC(C)n1nnc2ccccc21	1.98
CC(=O)OCCOC(=O)c1ccccc1	1.85
CCN(CC)CCCNC(=O)c1ccccc1OC	1.76
COCN1C(=O)CN=C(c2ccccc2)c2cc(N)ccc21	1.32
O=C(c1ccncc1)c1ccc([N+](=O)[O-])cc1	1.76
CN(C)C(=O)Oc1ccccc1Br	2.17
COc1cccc(/C=C/[N+](=O)[O-])c1	2.37
CC1(C)N=C(N)N=C(N)N1c1ccc(C(F)(F)F)cc1	1.22
NS(=O)(=O)c1cc2c(cc1[N+](=O)[O-])NCNS2(=O)=O	0.2

— the OPERA property sets (Mansouri et al. 2018)
